Five compounds from ChEMBL document CHEMBL1201862, “PubChem BioAssay data set” (2004) can be followed below.

Test systems include HCT-116; CCRF-CEM; LOX IMVI; MDA-MB-231; HL-60; SF-539; SK-MEL-28; EKVX; PC-3; SN12C; UACC-62; MOLT-4; SK-MEL-2; SNB-19; SK-MEL-5; K562; OVCAR-5; HOP-92.
Holding throughout (assay): DTP human tumour cell line panel, 48 h

Structures are written as SMILES.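 Briefly, cells in 96-well plates were exposed to five compound concentrations for 48 h, and endpoints were estimated by linear interpolation. GI50 marks 50% less growth.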 Active and inactive are the calls of the source. Rule as the data show it: active = GI50 up to about 1.1 µM and inactive = higher.

Regarding `CN(C)CCn1c(=O)c2ccc(NCCCN(C)CCCNc3ccc4c(=O)n(CCN(C)C)c(=O)n5c6ccccc6c(=O)c3c45)c3c(=O)c4ccccc4n(c1=O)c23`, the GI50 in the test with HCT-116 was < 0.01 µM (active); in the test on CCRF-CEM it was < 0.01 µM (active); in the test with LOX IMVI, < 0.01 µM (active); in the test on MDA-MB-231, < 0.0405 µM (active); in the test with HL-60, < 0.01 µM (active); in the test with SF-539, < 0.01 µM (active). The GI50 with SK-MEL-28 is 0.165 µM (active); in the test on EKVX, 0.051 µM (active); in the test with PC-3, < 0.01 µM (active); in the test on SN12C it was < 0.01 µM (active); with UACC-62, 0.151 µM (active); in the test on MOLT-4, < 0.01 µM (active). For the same compound, the GI50 is 0.107 µM (active) with SK-MEL-2; < 0.01 µM (active) in the test on SNB-19; < 0.0106 µM (active) in the test with SK-MEL-5; < 0.01 µM (active) in the test with K562; 0.145 µM (active) with OVCAR-5.
For `CCOC(=O)Cc1[nH]c(C(=O)c2ccccc2)cc1C(=O)c1ccccc1`, the GI50 is 17.5 µM (inactive) in the test on HCT-116; > 10 µM (inactive) in the test on CCRF-CEM; 22.2 µM (inactive) in the test on LOX IMVI; > 10 µM (inactive) in the test on MDA-MB-231; 33.1 µM (inactive) with HL-60; > 10 µM (inactive) in the test with SK-MEL-28. Further, the GI50 with EKVX is > 100 µM (inactive); in the test with PC-3, > 10 µM (inactive); in the test with SN12C it was > 100 µM (inactive); with UACC-62, > 100 µM (inactive); with MOLT-4, 14.8 µM (inactive); in the test with SK-MEL-2, 39 µM (inactive). Further, the GI50 in the test with SNB-19 is > 100 µM (inactive); in the test with SK-MEL-5, 41.8 µM (inactive); in the test with K562, > 10 µM (inactive); in the test with OVCAR-5 it was > 10 µM (inactive).
Take `CC(=O)C(C(C)=O)=C1CCCC(O)O1` (centres undefined): the GI50 with HCT-116 is > 100 µM (inactive); with CCRF-CEM it was 48.5 µM (inactive); with MDA-MB-231, > 100 µM (inactive); with HL-60 it was > 100 µM (inactive); with SF-539, > 100 µM (inactive); in the test with SK-MEL-28, > 100 µM (inactive). The GI50 with EKVX, with SN12C, in the test on UACC-62, in the test with MOLT-4, with SNB-19 and in the test on SK-MEL-5 was > 100 µM (inactive) each time. For the same compound, the GI50 with K562 and with OVCAR-5 was > 100 µM (inactive) throughout.
Turning to `O=C1[C@H]2ON(c3ccccc3)C(c3ccccc3)[C@H]2C(=O)N1c1ccc(Cc2ccc(N3C(=O)[C@@H]4ON(c5ccccc5)C(c5ccccc5)[C@@H]4C3=O)cc2)cc1` (some centres undefined), the GI50 in the test on CCRF-CEM, with LOX IMVI, in the test with HL-60, in the test with HOP-92, with SF-539 and with SK-MEL-28 was > 100 µM (inactive) throughout. Besides, the GI50 with SN12C, in the test with UACC-62, with MOLT-4, in the test with SK-MEL-2, in the test on SK-MEL-5 and in the test with K562 was > 100 µM (inactive) in each case. Moreover, the GI50 in the test on OVCAR-5 is > 100 µM (inactive).
For the compound `Cc1nc(Nc2ccc(F)cc2)c2sc(=S)n(-c3ccc(F)cc3)c2n1`, the GI50 in the test on HCT-116 is 3.74 µM (inactive); in the test with LOX IMVI it was 4.99 µM (inactive); in the test on MDA-MB-231 it was 13.9 µM (inactive); with HL-60, 23.6 µM (inactive); in the test with SK-MEL-28, 14.7 µM (inactive); in the test on EKVX, 13.1 µM (inactive). Further, the GI50 in the test with PC-3 was 20.1 µM (inactive); with SN12C, 14 µM (inactive); in the test with UACC-62, 16.1 µM (inactive); in the test on SK-MEL-2 it was 15.3 µM (inactive); in the test with SNB-19 it was 14.7 µM (inactive); in the test on SK-MEL-5 it was 14.6 µM (inactive). Moreover, the values for the GI50 in the test with K562 and in the test with OVCAR-5 were 33.2 µM (inactive) and 17.9 µM (inactive), respectively.
